Results as given in US7192617B2, “Whitening agent, skin preparation for external use and cosmetic” (priority 2002, dated 2007).

Test: Test for measuring DPPH radical scavenging activity
Conditions: 30 minutes of reaction at 30° C., absorbance at 517 nm; in terms of the evaporation residue
Procedure: 800 μl of a 500 μM DPPH solution was added to the test tube, stirred, and reacted at 30° C. Exactly after 30 minutes of reaction, the absorbance of the sample at 517 nm was measured, using distilled water as a standard. From the measured absorbances, the DPPH radical scavenging ratio was calculated, and the 50% radical scavenging activity (IC50) was obtained. The same procedure was performed with α-tocopherol, which is a known antioxidative component, for measuring the DPPH radical scavenging activity. […] From the measured values, the DPPH radical scavenging ratios were calculated.

50% DPPH radical scavenging activity (IC50): 0.13 mg/g
SMILES: Cc1c(C)c2c(c(C)c1O)CC[C@@](C)(CCC[C@H](C)CCC[C@H](C)CCCC(C)C)O2 [α-tocopherol]
